According to patent US5843437A, “A82846 antibiotics” (Eli Lilly and Company, priority 1995, dated 1998):
In brackets after ≈: the same amount, converted by molar mass. Entries after “also recorded” stand apart in the source; their conditions may differ.

How the values were obtained:
[1] = test system: Peptostreptococcus intermedius; experiment: MIC against anaerobic bacteria, standard agar-dilution assay (Table IX); assay type: cell-based; settings: Peptostreptococcus; 3 strains; Gram-positive anaerobe; 24-hour incubation; read-out: MIC
Peptococcus variabilis = experiment: as above; assay type: cell-based; settings: 1 strain; Gram-positive anaerobe; 24-hour incubation; read-out: MIC
[2] = serum half-life after intravenous administration to rats; settings: rat, in vivo, rats, intravenously
Description: The A82846 antibiotics have excellent in vitro and in vivo activity against Gram-positive pathogenic bacteria. A particularly unexpected attribute of these antibiotics is their long serum half-life.

Peptococcus constellatus = experiment: MIC against anaerobic bacteria, standard agar-dilution assay (Table IX); assay type: cell-based; settings: Streptococcus constellatus; 1 strain; Gram-positive anaerobe; 24-hour incubation; read-out: MIC
[3] = test system: Peptostreptococcus anaerobius; experiment: as above; assay type: cell-based; settings: Peptostreptococcus anaerobius; 8 strains; Gram-positive anaerobe; 24-hour incubation; read-out: MIC
[4] = test system: Streptococcus faecalis X-66; experiment: Rat Endocarditis Test, catheter-induced (Table XII); assay type: in vivo, rats; settings: 16 days, 20 mg/kg × 28, subcutaneous at 12-hour intervals for 14 days
Method: The A82846 antibiotics are also useful in the treatment of endocarditis. […] In this test, rats were prepared by inserting a plastic catheter into the right carotid artery, feeding it down into the […] of the heart and anchoring it securely. The animals were allowed to rest two days, and then the test organism, Streptococcus faecalis X-66, was administered intravenously. The organism titer was approximately 5×10^8 /mL; 0.5 mL was administered.
The compounds were administered subcutaneously 15 minutes prior to infection and at 12-hour intervals for 14 days, a total of 28 treatments. The animals were held 2 days after therapy; then, the hearts were removed, homogenized, diluted and plated on trypticase soy agar. Plates were incubated 48 hours before counting.
^a Catheterinduced endocarditis using Streptococcus faecalis X66
^b Subcutaneous doses at 12hour intervals for 14 days
^c % of animals sacrificed with 4 log drop

Bacteroides vulgatis = experiment: MIC against anaerobic bacteria, standard agar-dilution assay (Table IX); assay type: cell-based; settings: Bacteroides; 1 strain; Gram-negative anaerobe; 24-hour incubation; read-out: MIC
[5] = human medicine; cited from earlier work
[6] = test system: experimental descending pyelonephritis infection in rats; experiment: Rat Descending Pyelonephritis Test (Table XI); assay type: in vivo
Method: In one important aspect of their antibacterial activity, the A82846 antibiotics are useful for treating pyelonephritis. […] This test was carried out using a procedure like that described in U.S. Pat. No. 4,208,403.
^a Doses twice per day subcutaneously for 6 days

Peptococcus prevoti = experiment: MIC against anaerobic bacteria, standard agar-dilution assay (Table IX); assay type: cell-based; settings: 4 strains; Gram-positive anaerobe; 24-hour incubation; read-out: MIC
Fusobacterium symbiosum = experiment: as above; assay type: cell-based; settings: Fusobacterium; 1 strain; Gram-negative anaerobe; 24-hour incubation; read-out: MIC
[7] = test system: Fusobacterium necrophorum; experiment: as above; assay type: cell-based; settings: Fusobacterium necrophorum; 1 strain; Gram-negative anaerobe; 24-hour incubation; read-out: MIC
[8] = test system: Peptococcus asaccharolyticus; experiment: as above; assay type: cell-based; settings: Peptoniphilus asaccharolyticus; 3 strains; Gram-positive anaerobe; 24-hour incubation; read-out: MIC
[9] = test system: Bacteroides thetaiotaomicron; experiment: as above; assay type: cell-based; settings: Bacteroides thetaiotaomicron; 1 strain; Gram-negative anaerobe; 24-hour incubation; read-out: MIC
Peptococcus magnus = experiment: as above; assay type: cell-based; settings: Finegoldia magna; 3 strains; Gram-positive anaerobe; 24-hour incubation; read-out: MIC
Clostridium difficile = experiment: as above; assay type: cell-based; settings: Clostridioides difficile; 19 strains; Gram-positive anaerobe; 24-hour incubation; read-out: MIC
Clostridium perfringens = experiment: microbe, parasite or virus in culture; assay type: cell-based; settings: Clostridium perfringens, 24 h
Eubacterium aerofaciens = experiment: MIC against anaerobic bacteria, standard agar-dilution assay (Table IX); assay type: cell-based; settings: Collinsella aerofaciens; 1 strain; Gram-positive anaerobe; 24-hour incubation; read-out: MIC
Clostridium septicum = experiment: as above; settings: Clostridium septicum, 24 h
Streptococcus pyogenes [10] = experiment: protection of mice experimentally infected with test organism (Table X); assay type: in vivo; settings: sc, read-out: ED50 Value
Method: (§1) The A82846 antibiotics have also shown in vivo antimicrobial activity against experimentally-induced infections in laboratory animals. When two doses of test compound were administered to mice experimentally infected with the test organism, the activity observed was measured as an ED50 value [effective dose in mg/kg to protect 50% of the test animals: see Warren Wick, et al., J. Bacteriol. 81, 233-235 (1961)].
(§2) ^a mg/kg × 2; doses administered subcutaneously to mice 1 and 4

Streptococcus pneumoniae [11] = experiment: as above; assay type: in vivo; settings: sc, read-out: ED50 Value
Method: as §1, §2

Staphylococcus aureus [12] = experiment: as above; assay type: in vivo; settings: sc, read-out: ED50 Value
Method: as §1, §2

Bacteroides corrodens = experiment: MIC against anaerobic bacteria, standard agar-dilution assay (Table IX); assay type: cell-based; settings: Eikenella corrodens; 1 strain; Gram-negative anaerobe; 24-hour incubation; read-out: MIC
Streptococcus pyogenes [13] = experiment: MIC by standard agar-dilution assay (Table VIII); assay type: cell-based; settings: Streptococcus pyogenes, 12 strains tested, read-out: MIC
Method: (§3) The MIC's in Tables VII and VIII were determined by standard agar-dilution assays.

[14] = test system: Streptococcus sp. group. D; experiment: MIC by standard agar-dilution assay (Table VIII); assay type: cell-based; settings: Streptococcus, 20 strains tested, read-out: MIC
Method: as §3

[15] = test system: Staphylococcus epidermidis; experiment: MIC by standard agar-dilution assay (Table VIII); assay type: cell-based; settings: Staphylococcus epidermidis, 20 strains tested, read-out: MIC
Method: as §3

Streptococcus pneumoniae [16] = experiment: MIC by standard agar-dilution assay (Table VIII); assay type: cell-based; settings: Streptococcus pneumoniae, 20 strains tested, read-out: MIC
Method: as §3

Streptococcus mutans = experiment: MIC by standard agar-dilution assay (Table VIII); assay type: cell-based; settings: Streptococcus mutans, 2 strains tested, read-out: MIC
Method: as §3

Staphylococcus aureus [17] = experiment: MIC by standard agar-dilution assay (Table VIII); assay type: cell-based; settings: Staphylococcus aureus, 20 strains tested, read-out: MIC
Method: as §3

Streptococcus sanguis = experiment: MIC by standard agar-dilution assay (Table VIII); assay type: cell-based; settings: Streptococcus, 4 strains tested, read-out: MIC
Method: as §3

Streptococcus salivaris = experiment: MIC by standard agar-dilution assay (Table VIII); assay type: cell-based; settings: Streptococcus, 1 strain tested, read-out: MIC
Method: as §3

Propionibacterium acnes = experiment: MIC against anaerobic bacteria, standard agar-dilution assay (Table IX); assay type: cell-based; settings: Cutibacterium acnes; 19 strains; Gram-positive anaerobe; 24-hour incubation; read-out: MIC
[18] = test system: Cultures A82846 and A82846.1; experiment: resistance to antibiotics, antibiotic sensitivity discs on seeded agar plates; settings: disc 30 μg
Bacteroides fragilis = experiment: MIC against anaerobic bacteria, standard agar-dilution assay (Table IX); assay type: cell-based; settings: Bacteroides fragilis; 3 strains; Gram-negative anaerobe; 24-hour incubation; read-out: MIC
[19] = test system: Bacteroides melaninogenicus; experiment: as above; assay type: cell-based; settings: 2 strains; Gram-negative anaerobe; 24-hour incubation; read-out: MIC
[20] = 2 mg/kg × 12, subcutaneous twice per day for 6 days
[21] = 5 mg/kg × 12, subcutaneous twice per day for 6 days
[22] = 10 mg/kg × 12, subcutaneous twice per day for 6 days

For `CN[C@H](CC(C)C)C(=O)N[C@H]1C(=O)N[C@@H](CC(N)=O)C(=O)N[C@H]2C(=O)N[C@H]3C(=O)N[C@H](C(=O)N[C@H](C(=O)O)c4cc(O)cc(O)c4-c4cc3ccc4O)[C@H](O)c3ccc(c(Cl)c3)Oc3cc2cc(c3O[C@@H]2O[C@H](CO)[C@@H](O)[C@H](O)[C@H]2O[C@H]2C[C@](C)(N)[C@H](O)[C@H](C)O2)Oc2ccc(cc2Cl)[C@H]1O` [Vancomycin, vancomycin, reference compound], the MIC [1] was 0.5 to 1 µg/mL (≈ 0.345 to 0.69 µM), the MIC (Peptococcus variabilis) was 1 µg/mL (≈ 0.69 µM) and the half-life [2] was 45 min. The MIC (Peptococcus constellatus) was 1 µg/mL (≈ 0.69 µM), the MIC [3] was 0.25 to 2 µg/mL (≈ 0.173 to 1.38 µM) and the “% Cured” value [4] was 100%. The “% With 4 Log Drop” value ([4]; % of animals sacrificed) was 100%, the MIC (Bacteroides vulgatis) was 64 µg/mL (≈ 44.2 µM) and the side effects [5] was “ototoxicity; also recorded: nephrotoxicity”. For the same compound, the “Percent of Rats Cured” value [6, 20] was 38%, the “Percent of Rats with a 4-Log Reduction in Titer” value [6, 20] was 75% and the “Percent of Rats Cured” value [6, 21] was 38%. For the same compound, the “Percent of Rats with a 4-Log Reduction in Titer” value [6, 21] was 88%, the “Percent of Rats Cured” value [6, 22] was 63% and the “Percent of Rats with a 4-Log Reduction in Titer” value [6, 22] was 100%. The MIC (Peptococcus prevoti) was 1 to 4 µg/mL (≈ 0.69 to 2.76 µM), the MIC (Fusobacterium symbiosum) was 4 µg/mL (≈ 2.76 µM) and the MIC [7] was 1 µg/mL (≈ 0.69 µM). For the same compound, the MIC [8] was 1 µg/mL (≈ 0.69 µM), the MIC [9] was 64 µg/mL (≈ 44.2 µM) and the MIC (Peptococcus magnus) was 0.25 to 1 µg/mL (≈ 0.173 to 0.69 µM). For the same compound, the MIC (Clostridium difficile) was 0.5 to 4 µg/mL (≈ 0.345 to 2.76 µM), the MIC (Clostridium perfringens) was 2 µg/mL (≈ 1.38 µM) and the MIC (Eubacterium aerofaciens) was 2 µg/mL (≈ 1.38 µM). For the same compound, the MIC (Clostridium septicum) was 2 µg/mL (≈ 1.38 µM), the ED50 (Streptococcus pyogenes [10]) was 0.72 mg/kg and the ED50 (Streptococcus pneumoniae [11]) was 1.52 mg/kg. It also gave an ED50 (Staphylococcus aureus [12]) of 1.3 mg/kg, an MIC (Bacteroides corrodens) of 64 µg/mL (≈ 44.2 µM) and an MIC (Streptococcus pyogenes [13]) of 0.5 µg/mL (≈ 0.345 µM). For the same compound, the MIC [14] was 1 to 2 µg/mL (≈ 0.69 to 1.38 µM), the MIC [15] was 1 to 2 µg/mL (≈ 0.69 to 1.38 µM) and the MIC (Streptococcus pneumoniae [16]) was 0.015 to 4 µg/mL (≈ 0.0104 to 2.76 µM). It also gave an MIC (Streptococcus mutans) of 0.125 to 2 µg/mL (≈ 0.0863 to 1.38 µM), an MIC (Staphylococcus aureus [17]) of 0.5 to 2 µg/mL (≈ 0.345 to 1.38 µM) and an MIC (Streptococcus sanguis) of 0.5 to 1 µg/mL (≈ 0.345 to 0.69 µM). The MIC (Streptococcus salivaris) was 0.5 µg/mL (≈ 0.345 µM), the MIC (Propionibacterium acnes) was 2 to 16 µg/mL (≈ 1.38 to 11 µM) and the antibiotic resistance [18] was “resistant”. For the same compound, the MIC (Bacteroides fragilis) was 32 to 64 µg/mL (≈ 22.1 to 44.2 µM) and the MIC [19] was > 128 µg/mL.
